Source: patent US6710060B2, “4-hydroxypiperidine derivatives having antiarrhythmic activity” (Mochida Pharmaceutical Co., Ltd., priority 1999, dated 2004)
Counter-ions that a name gives are not always drawn. Like-named read-outs stand apart in the source and are kept apart here.

Columns and labels:
[1] = test system: Electrocardiogram in Rats; assay: Effect on electrocardiogram in rats; type: in vivo; details: 5 mg/kg intravenous, anesthetized rat, two minutes after administration
Procedure: [Effect on Electrocardiogram in Rats]
After anesthetizing with 1.5 g/kg (s.c.) of urethane, a rat was fixed on a warm plate at its supination. Polyethylene tubes for administering a test compound and for measuring the blood pressure were inserted into and fixed to the jugular vein and femoral artery, respectively. The blood pressure of the artery was measured using a pressure transducer. An electrode was attached to the animal, electrocardiograms were led by the standard lead II. The heart rate was measured by using a heart rate counter. The test compound was given by intravenous injection when the blood pressure and heat rate had been stabilized after the operation. […] Each parameter on the electrocardiogram was processed using an analysis software running on the personal computer to calculate the rate of change as compared with that before administration.

[2] = test system: Ischemia-Reperfusion Induced Arrythmia Model in Rats; assay: Suppression effect on ischemia-reperfusion induced arrythmia in rats; type: in vivo, rat
Procedure: [Suppression Effect on Ischemia-Reperfusion Induced Arrythmia in Rats]
The test compounds were administered to rats starved from a day before by gavage at a dosage of 10 mL/kg under an awaken condition. The rats were anesthetized with 60 mg/kg (i.p.) of sodium pentobarbital after 35 minutes passed from the administration, and were fixed on a warmed sheet in supine position. The body temperature was kept at 37° C. during the experiment, and artificial respiration was started under a condition of 15 mL/Kg and 55 strokes/minutes. […] Then, the left chest was open, and the left major coronary artery at an atrium side was sewed using a needle with a thread in order to ligate the coronary artery. After stabilizing for about 10 minutes (after 60 minutes passed from the administration), the coronary artery was ligated for 5 minutes, and re-perfused for 10 minutes thereafter. The ligation of the coronary artery was conducted by inserting a suture through a snare made of a polyethylene tube and pulling the both ends of the suture, followed by pressing the snare onto the heart. The re-perfusion was conducted by removing the snare. The aortic blood pressure was measured with a pressure transducer. An electrocardiogram was led by a standard lead II. […] After the completion of the experiments, generation of ventricular fibrillation was confirmed for each individual using an analysis software running on the personal computer, and incidence (%) of the ventricular fibrillation was determined for each administration group.

[3] = test system: isolated cardiac muscle cells; assay: Suppression activity of veratrine-induced contracture of isolated cardiac muscle; type: cell-based; details: Cardiac muscle cell, 5 min; rat isolated cardiac muscle cells, veratrine 100 gg/mL, 5 minutes after addition, probit analysis; read-out: IC50 (concentration of the test compound when half of the cells were contracted)
Procedure: [Suppression Activity of Veratrine-Induced Contracture of Isolated Cardiac Muscle]
Rats were anesthetized with 40 mg/kg (i.p.) of pentobarbital sodium and held in supine postion, and heparin was injected through the jugular vein. […] A polyethylene tube filled with Krebs-Ringer-HEPES (KRH) solution (pH 7.4) containing 1 mM CaCl2 was inserted through the aorta in retrograde manner, and the tube was fixed. The heart was extracted simultaneously with perfusion of the KRH solution at a hydraulic pressure of 70 cm water column. After thoroughly flushing the remaining blood by spontaneous contraction of the heart, stroke of the heart was halted by perfusion of the Ca^2+ free KRH solution for 10 minutes. The perfusion solutions described above were used after oxygenation with a mixed gas containing 95% O2 and 5% CO2 and keeping at a temperature of 37° C. Then, a KRH solution containing 25 μM CaCl2, 0.06% collagenase and 0.1% albumin was perfused for 20 minutes at 37° C. until the heart was soften. The ventricles were cut into pieces in the collagenase solution at 37° C., followed by an enzyme treatment for 10 minutes while aerating the solution with the mixed gas of 95% O2/5% CO2. The cells were dispersed by pipetting, and connective tissues were removed from the dispersed cells by filtering with a stainless steel mesh. After halting the enzyme reaction by adding albumin in the filtrate, the supernatant was discarded by centrifugation. The cells were suspended in the KRH solution containing 25 μM CaCl2 and 1% albumin, and the Ca^2+ concentration was increased stepwise by sequentially adding the CaCl2 solution in the suspension to a final concentration of 0.5 mM. A pellet of the cells was obtained by centrifugation after allowing the suspension to stand for 10 minutes. The pellet of the cells was laid on a column (10 cm in height and 15 mm in diameter) filled with the KRH solution containing 1 mM CaCl2 and 2% albumin, and the column was allowed to stand for 5 to 10 minutes. The supernatant was gently removed, and the number of rod-shaped cells in the precipitated cells was counted. The cells were re-suspended in the KRH solution containing 1 mM CaCl2 and 0.1% albumin, and pipetted into each well of a 48 well multi-plate (3548, COSTER) coated with poly-L-lysine so that each well contains 0.5 mL of the cell suspension with 1×10^4 cells/well. The suspension in each well was aerated with a mixed gas of 95% O2/5% CO2 at 37° C. for 1 hour to allow the cells to adhere on the bottom of the well. […] Then, the medium was replaced with a KRH solution containing a test compound, 0.025% lactic acid and 1 mM CaCl2, followed by aerating with a mixed gas containing 95% O2/5% CO2 at 37° C. for 30 minutes. After taking a photograph under a microscope, a KRH solution containing veratrine, 0.025% lactic acid and 1 mM CaCl2 was added to each well so that the final concentration of veratrin becomes 100 gg/mL, followed by taking a photograph of morphological changes of the cells after 5 minutes passed from the addition. A change from the rod-shape cell to a spherical cell was defined as contraction by veratrine. Veratrine in this concentration can contract all the cells. The concentration of the test compound when half of the cells were contracted was defined as IC50 (μmol/L) that can be calculated by a probit analysis.

[4] = oral gavage once a day for 14 days, 6-week aged female rats
[5] = Table 2-2, 5 mg/kg by gavage, solvent group 57.1

| Structure (SMILES) | PQ Distance (rate of change) [1] | QRS Width (rate of change) [1] | IC50 [3] | also measured |
| --- | --- | --- | --- | --- |
| CCCCOc1ccc(N(C)CCC2(O)CCN(Cc3ccccc3)CC2)cc1 [Example 146, 1-benzyl-4-[2-[N-(4-n-butoxyphenyl)-N-methylamino]ethyl]piperidin-4-ol dihydrochloride] | — (The rate of change at two minutes after administration is 15% or less as compared with that before administration.) | — (The rate of change at two minutes after administration is 15% or less as compared with that before administration.) | 1.2 µM | Incidence (%) of the ventricular fibrillation ([2]; Table 2-1, 5 mg/kg by gavage, ligation 60 min after administration, solvent group 63.6): 30.0%; Incidence (%) of the ventricular fibrillation ([2]; Table 2-1, 10 mg/kg by gavage, solvent group 63.6): 11.1%; Incidence (%) of the ventricular fibrillation ([2]; Table 2-1, 20 mg/kg by gavage, solvent group 63.6): 0.0%; daily dosage at which no fatal cases were observed (female Crj(SD)IGS rats; [4]): ≤ 100 mg/kg |
| CCCCOc1ccc(N(C)CCC2(O)CCN(CCc3ccc(F)cc3)CC2)cc1 [Example 176, 4-[2-[N-(4-n-butoxyphenyl)-N-methylamino]ethyl]-1-[2-(4-fluorophenyl)ethyl]piperidin-4-ol dihydrochloride] | — (The rate of change at two minutes after administration is 15% or less as compared with that before administration.) | — (The rate of change at two minutes after administration is 15% or less as compared with that before administration.) | 0.9 µM | – |
| CCCCOc1ccc(N(C)CCC2(O)CCN(CCc3ccc(F)cc3F)CC2)cc1 [Example 183, 4-[2-[N-(4-n-butoxyphenyl)-N-methylamino]ethyl]-1-[2-(2,4-difluorophenyl)ethyl]piperidin-4-ol dihydrochloride] | – | – | 1 µM | – |
| CCCCOc1ccc(N(C)CC2(O)CCN(Cc3ccccc3)CC2)cc1 [Example 210, 1-benzyl-4-[N-(4-n-butoxyphenyl)-N-methylamino]-methylpiperidin-4-ol monomaleate] | – | – | 0.9 µM | – |
| CC(C)Oc1ccc(N(C)CCC2(O)CCN(Cc3ccc(Br)cc3)CC2)cc1 [Example 220, 1-(4-bromophenylmethyl)-4-[2-[N-methyl-N-(4-isopropoxyphenyl)amino]ethyl]piperidin-4-ol dihydrochloride] | – | – | 0.7 µM | – |
| CC(C)Oc1ccc(N(C)CCC2(O)CCN(Cc3ccc(C(F)(F)F)cc3)CC2)cc1 [Example 221, 4-[2-[N-methyl-N-(4-isopropoxyphenyl)amino]ethyl]-1-[4-(trifluoromethyl)phenylmethyl]piperidin-4-ol dihydrochloride] | – | – | 0.3 µM | – |
| CC(C)Oc1ccc(N(C)CCC2(O)CCN(Cc3ccc(C#N)cc3)CC2)cc1 [Example 226, 1-(4-cyanophenylmethyl)-4-[2-[N-methyl-N-(4-isopropoxyphenyl)amino]ethyl]piperidin-4-ol dihydrochloride] | — (The rate of change at two minutes after administration is 15% or less as compared with that before administration.) | — (The rate of change at two minutes after administration is 15% or less as compared with that before administration.) | – | – |
| COC(=O)c1ccc(CN2CCC(O)(CCN(C)c3ccc(OC(C)C)cc3)CC2)cc1 [Example 233, 1-[4-(methoxycarbonyl)phenylmethyl]-4-[2-[N-methyl-N-(4-isopropoxyphenyl)amino]ethylipiperidin-4-oldihydrochloride] | — (The rate of change at two minutes after administration is 15% or less as compared with that before administration.) | — (The rate of change at two minutes after administration is 15% or less as compared with that before administration.) | – | Incidence (%) of the ventricular fibrillation [2, 5]: 28.6%; daily dosage at which no fatal cases were observed (female Crj(SD)IGS rats; female, Crj(SD)IGS, rat, in vivo, po, 14 days): ≤ 50 mg/kg |
| CC(C)Oc1ccc(N(C)CCC2(O)CCN(Cc3ccc(OC(F)(F)F)cc3)CC2)cc1 [Example 236, 4-[2-[N-methyl-N-(4-isopropoxyphenyl)amino]ethyl]-1-(4-trifluoromethoxyphenylmethyl)piperidin-4-ol dihydrochloride] | – | – | 0.3 µM | – |
| CC(C)Oc1ccc(N(C)CCC2(O)CCN(Cc3ccc(Br)cc3F)CC2)cc1 [Example 240, 1-(4-bromo-2-fluorophenylmethyl)-4-[2-[N-methyl-N-(4-isopropoxyphenyl)amino]ethyl]piperidin-4-ol dihydrochloride] | — (The rate of change at two minutes after administration is 15% or less as compared with that before administration.) | — (The rate of change at two minutes after administration is 15% or less as compared with that before administration.) | 0.7 µM | Incidence (%) of the ventricular fibrillation [2, 5]: 0.0% |
| CC(C)Oc1ccc(N(C)CCC2(O)CCN(Cc3cccs3)CC2)cc1 [Example 254, 4-[2-[N-methyl-N-(4-isopropoxyphenyl)amino]ethyl]-1(2-thienylmethyl)piperidin-4-ol dihydrochloride] | — (The rate of change at two minutes after administration is 15% or less as compared with that before administration.) | — (The rate of change at two minutes after administration is 15% or less as compared with that before administration.) | – | – |
| CC(C)Oc1ccc(N(C)CCC2(O)CCN(C(c3ccccc3)c3ccccc3)CC2)cc1 [Example 278, 1-diphenylmethyl-4-[2-[N-methyl-N-(4-isopropoxyphenyl)-amino]ethyl]piperidin-4-ol dihydrochloride] | — (The rate of change at two minutes after administration is 15% or less as compared with that before administration.) | — (The rate of change at two minutes after administration is 15% or less as compared with that before administration.) | 0.3 µM | Incidence (%) of the ventricular fibrillation [2, 5]: 0.0%; daily dosage at which no fatal cases were observed (female Crj(SD)IGS rats; [4]): ≤ 20 mg/kg |
